Source: US20210024545A1, “SUBSTITUTED DIAZAHETERO-BICYCLIC COMPOUNDS AND THEIR USE” (Bayer Aktiengesellschaft, priority 2016, published 2021)

Assays:
[1] = molecular target: human TASK-1 (Homo sapiens, UniProt O14649); test: Inhibition of recombinant TASK-1 in stably transfected CHO cells, KCl-induced depolarization, voltage-sensitive dye (B-2); assay type: cell-based; set-up: expressed in transfected cells; host or cells: stably transfected CHO cells; settings: depolarization induced by 40 mM potassium chloride, some mean values from multiple determinations
Experimental: (§1) B-2. Inhibition of Recombinant TASK-1 and TASK-3 In Vitro
(§2) The investigations on the inhibition of the recombinant TASK-1 and TASK-3 channels were conducted using stably transfected CHO cells. The compounds of the invention were tested here with administration of 40 mM of potassium chloride in the presence of a voltage-sensitive dye using the method described in detail in the following references [Whiteaker et al., Validation of FLIPR membrane potential dye for high-throughput screening of potassium channel modulators, J. Biomol. Screen. 6 (5), 305-312 (2001); Molecular Devices FLIPR Application Note: Measuring membrane potential using the FLIPR® membrane potential assay kit on Fluorometric Imaging Plate Reader (FLIPR®) systems, http://www.moleculardevices.com/reagents-supplies/assay-kits/ion-channels/flipr-membrane-potential-assay-kits]. The activity of the test substances was determined as their ability to inhibit a depolarization induced in the recombinant cells by 40 mM potassium chloride. The concentration which can block half of this depolarization is referred to as IC50).
(§3) Table 2 below lists the IC50 values from this assay determined for individual working examples of the invention (some as mean values from multiple independent individual determinations): […]

[2] = molecular target: human TASK-3 (Homo sapiens, UniProt Q9NPC2); test: Inhibition of recombinant TASK-3 in stably transfected CHO cells, KCl-induced depolarization, voltage-sensitive dye (B-2); assay type: cell-based; set-up: expressed in transfected cells; host or cells: stably transfected CHO cells; settings: depolarization induced by 40 mM potassium chloride, some mean values from multiple determinations
Experimental: as §1, §2, §3

human TASK-3, sequence (Q9NPC2 whole entry): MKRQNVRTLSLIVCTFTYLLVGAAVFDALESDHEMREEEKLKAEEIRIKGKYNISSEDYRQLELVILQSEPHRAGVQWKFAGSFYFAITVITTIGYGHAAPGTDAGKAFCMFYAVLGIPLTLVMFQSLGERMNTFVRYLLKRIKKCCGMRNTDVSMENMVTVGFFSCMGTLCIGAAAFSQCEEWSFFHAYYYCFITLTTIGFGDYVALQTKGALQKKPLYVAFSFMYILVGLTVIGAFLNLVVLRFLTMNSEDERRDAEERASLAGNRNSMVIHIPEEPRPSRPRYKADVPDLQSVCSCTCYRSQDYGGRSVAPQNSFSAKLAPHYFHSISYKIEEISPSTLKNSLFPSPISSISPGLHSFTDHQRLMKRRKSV
human TASK-1, sequence (O14649 whole entry): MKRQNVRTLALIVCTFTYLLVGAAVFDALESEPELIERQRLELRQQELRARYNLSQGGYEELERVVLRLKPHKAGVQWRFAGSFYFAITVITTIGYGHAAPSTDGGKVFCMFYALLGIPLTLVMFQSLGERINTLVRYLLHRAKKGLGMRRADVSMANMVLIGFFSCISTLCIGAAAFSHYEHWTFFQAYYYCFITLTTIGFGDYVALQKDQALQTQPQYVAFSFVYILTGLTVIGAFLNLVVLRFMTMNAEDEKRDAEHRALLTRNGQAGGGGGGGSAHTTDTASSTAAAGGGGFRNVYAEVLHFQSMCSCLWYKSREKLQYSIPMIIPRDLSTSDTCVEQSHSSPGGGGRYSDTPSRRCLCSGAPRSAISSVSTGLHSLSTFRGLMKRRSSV

SMILES | IC50 [1] | IC50 [2]
COc1ccc(F)c(C(=O)N2C[C@@H]3CC[C@H]2CN3Cc2c(-c3ccc(Cl)cc3)nc3ccccn23)n1 (single isomer, unassigned; enantiomer 1) [Example 23] | 790 nM | 170 nM
COc1ccc(Cl)c(C(=O)N2CC3CCC2CN3Cc2c(-c3ccc(Cl)cn3)nc3ccccn23)n1 (single isomer, unassigned; enantiomer 1) [Example 25, (3-Chloro-6-methoxypyridin-2-yl)(5-{[2-(5-chloropyridin-2-yl)imidaz[1,2-a]pyridin-3-yl]methyl}-2,5-diazabicyclo[2.2.2]oct-2-yl)methanone (enantiomer 1)] | 120 nM | 5.6 nM
O=C(c1cccc(OC(F)F)n1)N1CC2CCC1CN2Cc1c(-c2ccc(Cl)cn2)nc2ccccn12 (single isomer, unassigned; enantiomer 1) [Example 200, (5-{[2(5-Chloropyridin-2-yl)imidazo[1,2-a]pyridin-3-yl]methyl}-2,5-diazabicyclo[2.2.2]oct-2-yl)[6-(difluoromethoxy)pyridin-2-yl]methanone (enantiomer 1)] | 877 nM | 75 nM
CC(C)(C)OC(=O)N1C2COCC1CN(Cc1c(-c3ccc(Cl)cc3)nc3ccccn13)C2 [Example 4, tert-Butyl 7-{[2-(4-chlorophenyl)imidazo[1,2-a]pyridin-3-yl]methyl}-3-oxa-7,9-diazabicyclo[3.3.1]nonane-9-carboxylate] | 560 nM | 43 nM
CC(C)(C)OC(=O)N1CC2CCC(C1)N2Cc1c(-c2ccc(Br)cc2)nc2ccccn12 [Example 5] | 200 nM | 150 nM
CC(C)(C)OC(=O)N1CC2CCC(C1)N2Cc1c(-c2ccc(Cl)cc2)nc2ccccn12 [Example 6] | 394 nM | 410 nM
CC(C)(C)OC(=O)N1C2CCC1CN(Cc1c(-c3ccc(Cl)cc3)nc3ccccn13)C2 [Example 10] | 1090 nM | 230 nM
CC(C)(C)OC(=O)N1C2CCC1CN(Cc1c(-c3ccc(Br)cc3)nc3ccccn13)C2 [Example 11] | 1400 nM | 940 nM
CC(C)c1ccc(-c2nc3ccccn3c2CN2CC3CCC(C2)N3C(=O)OC(C)(C)C)cc1 [Example 12] | 3000 nM | 8300 nM
CC(C)(C)OC(=O)N1C2CCC1CN(Cc1c(-c3ccc(Cl)cn3)nc3ccccn13)C2 [Example 14] | 5100 nM | 860 nM
COc1ccc(F)c(C(=O)N2C3COCC2CN(Cc2c(-c4ccc(Cl)cc4)nc4ccccn24)C3)n1 [Example 30, (7-{[2-(4-Chlorophenyl)imidazo[1,2a]pyridin-3-yl]methyl}-3-oxa-7,9-diazabicyclo[3.3.1]non-9-yl)(3-fluoro-6-methoxypyridin-2-yl)methanone] | 770 nM | 21 nM
O=C(c1cccc(OC2CCC2)n1)N1C2COCC1CN(Cc1c(-c3ccc(Cl)cc3)nc3ccccn13)C2 [Example 31, (7-{[2-(4-Chlorophenyl)imidazo[1,2-a]pyridin-3-yl]methyl}-3-oxa-7,9-diazabicyclo[3.3.1]non-9-yl)[6-(cyclobutyloxy)pyridin-2-yl]methanone] | 310 nM | 26 nM
COc1ccc(Cl)c(C(=O)N2C3COCC2CN(Cc2c(-c4ccc(Cl)cc4)nc4ccccn24)C3)n1 [Example 32, (3-Chloro-6-methoxypyridin-2-yl)(7-{[2-(4-chlorophenyl)imidazo[1,2-a]pyridin-3-yl]methyl}-3-oxa-7,9-diazabicyclo[3.3.1]non-9-yl)methanone] | 270 nM | 9.6 nM
O=C(c1ccccc1F)N1CC2CCC1CN2Cc1c(-c2ccc(Cl)cn2)nc2ccccn12 (stereo not drawn) [Example 64] | 280 nM | 17 nM
COc1cccc(C(=O)N2CC3CCC2CN3Cc2c(-c3ccc(Cl)cn3)nc3ccccn23)n1 (stereo not drawn) [Example 65] | 2000 nM | 460 nM
O=C(c1ccccc1F)N1C2COCC1CN(Cc1c(-c3ccc(Cl)cc3)nc3ccccn13)C2 [Example 69] | 870 nM | 101 nM
COc1cccc(C(=O)N2C3COCC2CN(Cc2c(-c4ccc(Cl)cc4)nc4ccccn24)C3)c1 [Example 70] | 1900 nM | 160 nM
O=C(C1CCCC1)N1C2COCC1CN(Cc1c(-c3ccc(Cl)cc3)nc3ccccn13)C2 [Example 71] | 130 nM | 24 nM
O=C(c1cccc(OC(F)(F)F)c1)N1C2COCC1CN(Cc1c(-c3ccc(Cl)cc3)nc3ccccn13)C2 [Example 72] | 2000 nM | 120 nM
CC(C)c1ccccc1C(=O)N1C2COCC1CN(Cc1c(-c3ccc(Cl)cc3)nc3ccccn13)C2 [Example 73] | 160 nM | 9.6 nM
COc1ccc(Cl)c(C(=O)N2C3COCC2CN(Cc2c(-c4ccc(Cl)cc4)nc4ccccn24)C3)c1 [Example 74] | 330 nM | 23 nM
COc1ccc(F)cc1C(=O)N1C2COCC1CN(Cc1c(-c3ccc(Cl)cc3)nc3ccccn13)C2 [Example 75] | 380 nM | 30 nM
CC(C)c1cccc(C(=O)N2C3COCC2CN(Cc2c(-c4ccc(Cl)cc4)nc4ccccn24)C3)c1 [Example 76] | 240 nM | 14 nM
O=C(c1cccc(OCC(F)(F)F)n1)N1C2COCC1CN(Cc1c(-c3ccc(Cl)cc3)nc3ccccn13)C2 [Example 77] | 810 nM | 44 nM

SMILES | IC50 [1] | IC50 [2]
O=C(C1CCOC1)N1C2COCC1CN(Cc1c(-c3ccc(Cl)cc3)nc3ccccn13)C2 (stereo not drawn) [Example 78] | 1600 nM | 65 nM
O=C(c1cccc(Cl)c1)N1C2COCC1CN(Cc1c(-c3ccc(Cl)cc3)nc3ccccn13)C2 [Example 79] | 1000 nM | 190 nM
O=C(c1cccc(OC(F)(F)F)n1)N1C2COCC1CN(Cc1c(-c3ccc(Cl)cc3)nc3ccccn13)C2 [Example 80] | 310 nM | 15 nM
COc1ccc(C)c(C(=O)N2C3COCC2CN(Cc2c(-c4ccc(Cl)cc4)nc4ccccn24)C3)n1 [Example 81] | 520 nM | 25 nM
O=C(c1ccccc1F)N1CC2CCC(C1)N2Cc1c(-c2ccc(Br)cc2)nc2ccccn12 [Example 82] | 230 nM | 420 nM
COc1cccc(C(=O)N2CC3CCC(C2)N3Cc2c(-c3ccc(Br)cc3)nc3ccccn23)n1 [Example 83] | 134 nM | 14 nM
COc1cccc(C(=O)N2CC3CCC(C2)N3Cc2c(-c3ccc(Br)cc3)nc3ccccn23)c1 [Example 84] | 1100 nM | 400 nM
O=C(C1CCCC1)N1CC2CCC(C1)N2Cc1c(-c2ccc(Br)cc2)nc2ccccn12 [Example 85] | 520 nM | 53 nM
O=C(c1ccccc1F)N1CC2CCC(C1)N2Cc1c(-c2ccc(Cl)cc2)nc2ccccn12 [Example 87] | 583 nM | 160 nM
Cc1ccc(F)cc1C(=O)N1CC2CCC(C1)N2Cc1c(-c2ccc(Cl)cc2)nc2ccccn12 [Example 88] | 766 nM | 210 nM
COc1ccc(F)cc1C(=O)N1CC2CCC(C1)N2Cc1c(-c2ccc(Cl)cc2)nc2ccccn12 [Example 89] | 827 nM | 220 nM
Cc1ccccc1C(=O)N1CC2CCC(C1)N2Cc1c(-c2ccc(Cl)cc2)nc2ccccn12 [Example 90] | 958 nM | 79 nM
COc1ccccc1C(=O)N1CC2CCC(C1)N2Cc1c(-c2ccc(Cl)cc2)nc2ccccn12 [Example 91] | 1350 nM | 89 nM
O=C(C1CCCCC1)N1CC2CCC(C1)N2Cc1c(-c2ccc(Cl)cc2)nc2ccccn12 [Example 93] | 2300 nM | 510 nM
CC(C)c1ccc(-c2nc3ccccn3c2CN2C3CCC2CN(C(=O)c2ccccc2F)C3)cc1 [Example 94] | 530 nM | 130 nM
COc1cccc(C(=O)N2CC3CCC(C2)N3Cc2c(-c3ccc(C(C)C)cc3)nc3ccccn23)n1 [Example 95] | 1700 nM | 350 nM
O=C(C1CCCC1)N1C2CCC1CN(Cc1c(-c3ccc(Br)cc3)nc3ccccn13)C2 [Example 96] | 240 nM | 4.5 nM
O=C(c1ccccc1F)N1C2CCC1CN(Cc1c(-c3ccc(Br)cc3)nc3ccccn13)C2 [Example 97] | 390 nM | 7.8 nM
COc1cccc(C(=O)N2C3CCC2CN(Cc2c(-c4ccc(Br)cc4)nc4ccccn24)C3)n1 [Example 98] | 450 nM | 14 nM
COc1cccc(C(=O)N2C3CCC2CN(Cc2c(-c4ccc(Br)cc4)nc4ccccn24)C3)c1 [Example 99] | 470 nM | 16 nM
Cc1ccccc1C(=O)N1C2CCC1CN(Cc1c(-c3ccc(Cl)cc3)nc3ccccn13)C2 [Example 100] | 250 nM | 17 nM
O=C(C1CCC1)N1C2CCC1CN(Cc1c(-c3ccc(Cl)cc3)nc3ccccn13)C2 [Example 101] | 370 nM | 7.2 nM
COc1ccc(F)cc1C(=O)N1C2CCC1CN(Cc1c(-c3ccc(Cl)cc3)nc3ccccn13)C2 [Example 103] | 540 nM | 20 nM
O=C(C1CCCCC1)N1C2CCC1CN(Cc1c(-c3ccc(Cl)cc3)nc3ccccn13)C2 [Example 105] | 830 nM | 20 nM
